# In patent publication US11219632B2, “Skin pigmentation inhibitor” (Oriental Yeast Co., Ltd., priority 2017, dated 2022):
# Legend:
# Format in all cases: in vivo, brown guinea pig
# [1] = tested on: pigmentation induced by ultraviolet; experiment: Ultraviolet-induced skin pigmentation in brown guinea pigs, oral β-NMN (Example 1); settings: for ΔL value at ultraviolet irradiation site: oral 500 mg/kg body weight once a day
# Excerpt: (§1) Brown guinea pigs (Kw1: line A-1, supplied from Kiwa Laboratory Animals Co., Ltd.) used for the subsequent experiment were bred under SPF environment throughout the entire experimental period. As in a case of humans, it is known that pigmentation of the brown guinea pigs of Kw1: line A-1 is caused by ultraviolet irradiation.
# (§2) First, an unanesthetized brown guinea pig was fixed on a fixed plate in an abdominal position, and the back skin was sheared with an electric hair clipper and shaved with an electric shaver. Among the shaved area of the back skin, a region obtained by cutting out a region corresponding to the irradiation site by attaching a tape for bookbinding to an adhesive fabric stretchable bandage (ELASTOPORE No. 50, Nichiban Co., Ltd.) was attached on a site other than the ultraviolet irradiation site, and thereby the region other than the radiation site was light-shielded. Further, the eyes of the guinea pig were also light-shielded from ultraviolet by attaching lint cloth with the adhesive fabric stretchable bandage. Thereafter, ultraviolet (UVB) irradiation was performed from a distance of 40 cm using five SE lamps (wavelength of 250 to 350 nm, FL20S E, Toshiba Corporation) attached to an ultraviolet irradiation apparatus (Y-798-II, Orion Electric Co., Ltd.).
# (§3) Regarding oral administration, a solution in which β-NMN (Oriental Yeast Co., Ltd.) was dissolved in injection water (Otsuka Pharmaceutical Factory, Inc.) was orally administered forcedly using a disposable syringe made of polypropylene (Terumo Corporation) attached with a catheter (a nutrition catheter manufactured by JMS Co., Ltd.). […] A dosage was calculated from a body weight value on an administration day or a day close to the administration day, and the dosage was 5 mL/kg.
# Effects of […] on pigmentation induced by ultraviolet were examined using brown guinea pigs.
# First, six brown guinea pigs were divided into a group administered β-NMN (NMN group) and a group administered injection water (control group). A day performed this group dividing was considered day 0 of administration, and from the next day, the β-NMN solution or injection water was orally administered to the guinea pigs of each group once a day for 42 days. The β-NMN solution was administered at a dosage of 500 mg/kg body weight. […]
# (Measurement of pigmentation) L values (brightness) of the skin of the ultraviolet irradiation site of each guinea pig were measured by using Chroma Meter (CR-300, Konica Minolta, Inc.) on the first irradiation day (day 0), and on days 14, 21, and 28. […] On days 0, 14 and 21, L values were measured before the ultraviolet irradiation, and on day 28, L values were measured in the morning. […]
# [2] = tested on: pigmentation induced by ultraviolet; experiment: Ultraviolet-induced skin pigmentation in brown guinea pigs, oral and transdermal β-NMN (Example 2); settings: for ΔL value at ultraviolet irradiation site: 28 days from first irradiation
# Excerpt: as §1, §2, §3
# Effects of β-NMN on pigmentation induced by ultraviolet were examined using brown guinea pigs.
# Ethanol (lot number: DSM5187, Wako Chemical Co., Ltd.), 1,3-butanediol (lot number: TWQ 6672, Wako Pure Chemical Industries, Ltd.), and injection water (lot number: K5F71, Otsuka Pharmaceutical Factory, Inc.) were mixed at a ratio of 1:1:8 (a volume ratio), and used as a solvent. A solution dissolved β-NMN in this solvent at a concentration of 0.5% by mass was used as a β-NMN-containing external preparation.
# First, six brown guinea pigs were divided into a group orally administered β-NMN and a group not administered β-NMN. […]
# [3] = Body weight of brown guinea pigs during oral β-NMN administration (Example 1); settings: for Body weight: oral 500 mg/kg
# Description: First, six brown guinea pigs were divided into a group administered β-NMN (NMN group) and a group administered injection water (control group). A day performed this group dividing was considered day 0 of administration, and from the next day, the β-NMN solution or injection water was orally administered to the guinea pigs of each group once a day for 42 days. The β-NMN solution was administered at a dosage of 500 mg/kg body weight.
# A body weight of each guinea pig was measured with an electronic balance in the morning once a week from the first administration day. The measurement was performed before the irradiation on the irradiation day, and before the administration on the β-NMN administration day.
compound,measurement,setting,value
"NC(=O)c1ccc[n+]([C@@H]2O[C@H](COP(=O)([O-])O)[C@@H](O)[C@H]2O)c1 [NMN, Nicotinamide mononucleotide]",ΔL value at ultraviolet irradiation site,[1]; day 14 after first irradiation,8.28
same,ΔL value at ultraviolet irradiation site,[1]; day 21 after first irradiation,8.99
same,ΔL value at ultraviolet irradiation site,[1]; day 28 after first irradiation,9.55
same,Pigmentation compared to the control group,[1]; oral 500 mg/kg body weight once a day for 42 days,pigmentation was inhibited
same,ΔL value at ultraviolet irradiation site,"[2]; NMN oral administration group (oral 500 mg/kg, solvent only on skin)",6.01
same,ΔL value at ultraviolet irradiation site,[2]; NMN transdermal & oral administration group (oral 500 mg/kg plus 0.05 mL of 0.5% by mass external preparation per site),5.20
same,Pigmentation compared with the control group,[2]; oral administration only,pigmentation was inhibited
same,Pigmentation compared with only oral administration,[2]; transdermal administration in addition to oral administration,pigmentation was further inhibited
same,Body weight,[3]; 0 days after first administration,405 ± 22 g
same,Body weight,[3]; 1 day after first administration,408 ± 23 g
same,Body weight,[3]; 8 days after first administration,431 ± 23 g
same,Body weight,[3]; 15 days after first administration,462 ± 33 g
same,Body weight,[3]; 22 days after first administration,497 ± 34 g
same,Body weight,[3]; 29 days after first administration,529 ± 29 g
same,Body weight,[3]; 36 days after first administration,551 ± 35 g
same,Body weight,[3]; 43 days after first administration,584 ± 33 g
same,Body weight difference versus control group,[3]; oral 500 mg/kg once a day for 42 days,no significant difference in body weight
